Data from patent US20150010644A1, “OXYGENATION OF THE MUCOSAL BARRIER BY ENTERAL ARTIFICIAL BLOOD TO PREVENT HYPOXIC BREAKDOWN OF THE MUCOSAL BARRIER” (THE REGENTS OF THE UNIVERSITY OF CALIFORNIA, priority 2011, published 2015).
“Also recorded” adds a separate entry of the source.

Assays:
[1] = system: mucin13; test: Western blot for mucin13 of intestine homogenates, rat SAO model; type: in vivo; settings: SAO 30 min, lumenal injection 30 min prior
Procedure: (§1) Male Wistar rats (250-300 g, Harlan Sprague Dawley Inc, Indianapolis, Ind.) were randomly assigned to each group (n=4 per group). Rats were kept on solid food restriction for 12 hours prior to surgery with water ad libitum. […] Sham groups were treated the same with the arteries separated but not ligated.
(§2) Perfluorocarbon groups: Perfluorodecalin (PFC) (Sigma-Aldrich, St Louis, Mo.) with oxygen, previously bubbled into the solution for 10 min, was injected into the lumen of the intestine 30 min prior SHAM or SAO surgery (SHAM+PFC+O2, SAO+PFC+O2). PFC without oxygen bubbled into the solution was injected 30 min prior SHAM or SAO surgery (SHAM+PFC, SAO+PFC).
(§3) ATP-MgCl2 groups: ATP-MgCl2 (Sigma-Aldrich), 25 mg/kg BW was injected in the lumen of the intestine 30 min prior to SHAM or SAO surgery (SHAM+ATP, SAO+ATP).
(§4) pH groups: Acidic saline (pH 5.5) injected in the lumen of the intestine 30 min prior SHAM surgery or HEPES buffer (20 mM) injected into the lumen of the intestine 30 min prior to SHAM or SAO surgery.
(§5) Free radicals groups: The hydroxyl radical scavenger, dimethylthiourea (DMTU, Sigma-Aldrich; 2.0 mg/g BW) was injected in the lumen of the intestine 30 min prior to SAO (SAO+DMTU).
(§6) Homogenates of intestine and lumenal contents: Jejunal segments were excised without removal of lumenal contents. For enzyme activity measurements, segments of intestine were homogenized with CelLytic™ (Sigma-Aldrich) without addition of protease inhibitors. For Western blot assays the intestine segments were homogenized as above in the presence of protease inhibitors (5 mM EDTA, 5 mM N-Ethylmaleimide, 25 mM iodoacetamide, 5 mM benzamidine, 300 mM acarbose, 5 mM 6-aminocaproic acid, 1 mM protease inhibitor cocktail, (Sigma-Aldrich). In separate experiments the small intestine of sham animals was excised, and the lumenal contents were flushed with 20 ml saline. Homogenates or lumenal contents were centrifuged (16,000 g for 15 min at 4° C.), the supernatant was collected and protein concentration was assessed with the bicinchoninic acid protein assay (Thermo Scientific).
(§7) Western blot: 20 μg of tissue homogenate were separated by SDS-PAGE. Membranes were incubated with primary antibodies as follows: mucin2, mucin13 and trypsin 1:1000 (Santa Cruz Biotechnology), pancreatic amylase 1:1000 (GeneTex, San Antonio, Tex.), intra- and extra-cellular domains of E-cadherin and TLR4 1:1000 (Abcam), intracellular domain of TLR4 1:1000 (Invitrogen). Secondary antibodies were diluted 1:20000 (Santa Cruz Biotechnology) and detected with Super Signal West Pico (Thermo Scientific). The exposed x-ray films were scanned and label intensity was measured using digital gel analysis (NIH ImageJ software).

[2] = system: ATP concentration in intestine homogenates; test: ATP assay in intestine homogenates, rat SAO model; type: in vivo; settings: SAO 30 min; lumenal injection 30 min prior
Procedure: as §1, §2, §3, §4, §5
ATP assay: ATP concentrations in intestine homogenates were measured using ATP fluorometirc assay kit (BioVision, Mountain View, Calif.) according to manufacturer's protocol. Briefly jejuna sections were homogenized with perchloric acid (BioVision), centrifuged at 15,000×G for 5 min at 4° C. Samples were mixed with ATP reaction mix, incubated for 30 min protected from light and the fluorescence was measured with 535/587 (Ex/Em).

[3] = system: intestinal villi hypoxia; test: Hypoxia staining (pimonidazole, Hypoxyprobe-1) of intestinal villi, rat SAO model; type: in vivo; settings: SAO 30 min; lumenal injection 30 min prior
Procedure: as §1, §2, §3, §4, §5
Hypoxia staining: In separate experiments tissue hypoxia was detected with Hypoxyprobe™-1 Kit (Natural Pharmacia International, Burlington, Mass., USA). This method utilizes a small molecular marker, pimonidazole, which after intravenous injection forms adducts with thiol containing proteins only in oxygen-starved cells. After general anesthesia as described above, pimonidazole-HCl (6 mg/100 g) was injected intravenously 30 min before SAO or SHAM; at 30 min the animal was euthanized and the jejuna section removed, embedded in O.C.T and frozen in liquid nitrogen. Then cryosections were immunostained using a rabbit antibody that binds to protein adducts of pimonidazole in hypoxic cells.

[4] = system: lectin staining (carbohydrate portion of mucin); test: Lectin fluorescent staining (carbohydrate portion of mucin) of jejunal sections, rat SAO model; type: in vivo; settings: SAO 30 min; lumenal injection 30 min prior
Procedure: as §1, §2, §3, §4, §5
(§8) Tissue cryosections: After euthanasia, jejunal sections (˜1 cm in length) were excised without removal of lumenal contents and suspended in Tissue-Tek O.C.T. Compound (Sakura Finetek, Torrance, Calif.), snap frozen in isopentane/liquid nitrogen, and stored at −80° C. for analysis. Cryosections (5 μm thickness) along the longitudinal axis of the villi were used throughout all experiments. Cryosections were fixed in 10% formalin solution and processed in a non-blinded fashion.
(§9) Mucin and lectin staining: The simultaneous visualization of lectins and mucin was carried out using Lectin GS-II from Griffonia simplicifolia, Alexa Fluor® 594 Conjugate (EnzChek®, Invitrogen, Carlsbad, Calif.) and specific antibody for mucin2 with FITC secondary antibody 1:10000 (Santa Cruz Biotechnology) and nuclei counterstaining with DAPI. Sections were observed on an inverted microscope (20× objective) using the appropriate fluorescent filters.

[5] = system: trypsin activity in the intestinal wall; test: In-situ zymography for trypsin activity in jejunal cryosections, rat splanchnic arterial occlusion (SAO) model; type: in vivo; settings: lumenal injection 30 min prior
Procedure: as §1
Control groups: Animals with saline injection into the lumen of the intestine, 3 ml/100 g Body Weight (BW), 30 min prior to SHAM or SAO surgery.
as §2
ATP-MgCl2 groups: ATP-MgCl2 (Sigma-Aldrich), 25 mg/kg BW was injected in the lumen of the intestine 30 min prior to SHAM or SAO surgery (SHAM+ATP, SAO+ATP). […]
After 30 min SAO or sham surgery, the animals were euthanized (Beuthanasia®; 0.22 ml/kg BW, IV).
as §8
In-situ tissue zymography: In-situ zymography for trypsin activity in cryosections was assessed by measurement of fluorescence resulting from the proteolytic cleavage of the substrate (1 mM, Na-benzoyl-L-arginine-7-amido-methylcoumarin hydrochloride; Sigma-Aldrich) as described elsewhere with propidium iodine counterstaining (Sigma-Aldrich) (9). Slides were observed under an inverted microscope (20× and 60× objectives).

[6] = system: mucin2; test: Western blot for mucin2 of intestine homogenates, rat SAO model; type: in vivo; settings: SAO 30 min, lumenal injection 30 min prior
Procedure: as §1, §2, §3, §4, §5, §6, §7

[7] = system: mucin2; test: Mucin2 fluorescent staining of jejunal sections, rat SAO model; type: in vivo; settings: SAO 30 min, lumenal injection 30 min prior; for villi injury / villus structure: micrographs
Procedure: as §1, §2, §3, §4, §5, §8, §9

[8] = system: IEC-18 cells; test: FITC-dextran permeability of IEC-18 cells on Transwell plates with and without mucin film; type: cell-based; settings: trypsin 50 μM
Procedure: (§10) To investigate whether mucin provides a barrier against trypsin transport, IEC-18 cells (on Transwell plates) were coated with and without a mucin film (400 μm, 10%, porcine stomach). FITC-dextrans (20 kDa, 5 mg/ml) with and without trypsin (50 μM) was added to the apical side and the rate of FITC accumulation on the basal side over 60 min was measured. To determine if trypsin cleaves the adherent junctions of the epithelium, it was measured by Western blot the levels of intra- and extracellular domains of E-cadherin. […] Thus, mucin protects against trypsin-mediated increases in intestinal epithelial permeability.

[9] = system: E-cadherin; test: Western blot of intra- and extracellular domains of E-cadherin in IEC-18 cells; type: cell-based; settings: trypsin 50 μM
Procedure: as §10

[10] = system: MDA equivalents (TBARS) in jejunal homogenates; test: Thiobarbituric Acid Reactive Substances (TBARS) assay, rat SAO model; type: in vivo; settings: SAO 30 min; lumenal injection 30 min prior
Procedure: as §1, §2, §3
pH groups: Acidic saline (pH 5.5) injected in the lumen of the intestine 30 min prior SHAM surgery or HEPES buffer (20 mM) injected into the lumen of the intestine 30 min prior to SHAM or SAO surgery. […]
TBARS assay: Thiobarbituric Acid Reactive Substances (TBARS) was measured using the TBARS assay kit (Zeptometrix, Buffalo, N.Y.) according to manufacturer's protocol. […] Samples were centrifuged at 3000 rpm for 15 min and the supernatant were read at 530/550 (Ex/Em).

[11] = system: ischemic intestine; test: Rat model with severe ischemic intestine (30 min ischemia), enteral oxygen carrier; type: in vivo; settings: 7 ml for 230 g rat, saturated for 10 min in oxygen
Procedure: The case was illustrated in a model with 30 min ischemia with Perfluorodecalin solution (7 ml for 230 g rat) saturated for 10 min in oxygen.

[12] = listed as deoxygenated perfluorcarbon

FC1(F)C(F)(F)C(F)(F)C2(F)C(F)(F)C(F)(F)C(F)(F)C(F)(F)C2(F)C1(F)F (stereo not shown) [deoxygenated perfluorocarbon, Perfluorodecalin, reference compound]
mucin13 protein levels / 17 kDa fragment (Western blot) [1, 12]: presented the lower molecular weight fragments at 17 kDa | ATP concentration in intestinal tissue homogenates [2]: significantly decreased | hypoxia staining levels [3]: highest levels of hypoxia staining | lectin staining levels [4]: significantly lower | trypsin activity in the intestinal wall ([5]; SAO 30 min): High levels of trypsin activity | trypsin activity in the intestinal wall ([5]; SHAM surgery): minimal trypsin activity | mucin2 protein levels (relative density, Western blot) [6, 12]: reduced in the SAO group (SAO+PFC) as compared to sham (SHAM+PFC) | mucin2 staining levels [7]: significantly lower

O=S(=O)(O)CCN1CCN(CCO)CC1 [HEPES buffer, HEPES]
mucin13 protein levels / 17 kDa fragment (Western blot) [1]: no degradation of mucin13 | ATP concentration in intestinal tissue homogenates [2]: significantly higher than SAO and similar to sham groups | hypoxia staining levels [3]: significantly higher than the SHAM and SHAM-HEPES groups as well as the SAO group | lectin staining levels [4]: lower as compared to SHAM | trypsin activity in the intestinal wall ([5]; SAO 30 min): Low levels of trypsin activity | trypsin activity in the intestinal wall ([5]; SHAM surgery): minimal trypsin activity | mucin2 protein levels (relative density, Western blot) [6]: no significant decrease in mucin2 molecule | mucin2 staining levels [7]: significantly lower as compared to SHAM, and they were also significantly higher than SAO | villi injury / villus structure [7]: did not have signs of villi injury

mucin
decrease of epithelial permeability (FITC-dextran 20 kDa accumulation on basal side over 60 min) ([8]; mucin film present (400 μm, 10%, porcine stomach), p<0.05): 30% | E-cadherin cleavage ([9]; mucin film present): cleavage is reduced

FC1(F)C(F)(F)C(F)(F)C2(F)C(F)(F)C(F)(F)C(F)(F)C(F)(F)C2(F)C1(F)F (stereo not shown) [oxygenated perfluorocarbon, Perfluorodecalin]
levels of MDA equivalents (TBARS) [10]: significantly lower as compared to SAO or SAO+PFC | mucin13 protein levels / 17 kDa fragment (Western blot) [1]: complete disappearance or very faint levels of the 17 kDa band; also recorded: reduces mucin2 and mucin13 degradation | ATP concentration in intestinal tissue homogenates [2]: no reduction of ATP concentration | intestinal damage [11]: minimize intestinal damage | lectin staining levels [4]: significantly higher as compared to SAO and SAO-PFC | trypsin activity in the intestinal wall ([5]; SAO 30 min): prevents the appearance of trypsin activity inside the intestinal wall | trypsin activity in the intestinal wall ([5]; SAO 30 min, listed as oxygenated perfluorcarbon): undetectable levels of trypsin activity | trypsin activity in the intestinal wall ([5]; SHAM surgery): minimal trypsin activity | mucin2 protein levels (relative density, Western blot) [6]: mucin2 density levels similar to the sham; also recorded: reduces mucin2 and mucin13 degradation | mucin2 staining levels [7]: significantly higher as compared to SAO and SAO-PFC | villi injury / villus structure [7]: preserve the villus structure

trypsin
increase of epithelial permeability (FITC-dextran 20 kDa accumulation on basal side over 60 min) ([8]; without a mucin film): 42% | E-cadherin cleavage ([9]; without a mucin film): cleaved

CNC(=S)NC [DMTU, dimethylthiourea, reference compound]
mucin13 protein levels / 17 kDa fragment (Western blot) [1]: no appearance of the lower molecular weight band at 17 kDA; also recorded: preservation of mucin13 protein levels | ATP concentration in intestinal tissue homogenates [2]: lower than SHAM and higher than SAO but it was not statistically significant | hypoxia staining levels [3]: significantly low levels of hypoxia staining as compared to SAO | lectin staining levels [4]: lower levels of lectin labeling as compared to SHAM; also recorded: decrease in lectin staining | trypsin activity in the intestinal wall ([5]; SAO 30 min): undetectable levels of trypsin activity; also recorded: reduced trypsin activity in the intestinal wall | mucin2 protein levels (relative density, Western blot) [6]: reduced levels of mucin2; also recorded: reduction in mucin2 protein levels | mucin2 staining levels [7]: no significant change in mucin2 staining levels | villi injury / villus structure [7]: undetectable villi injury
